Assay results reported in PubChem BioAssay (NCI).
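Interpolation was linear, between the two tested concentrations surrounding the appropriate level; five concentrations were tested over 48 hours in 96-well plates. GI50 is the concentration that inhibits growth by half. TGI is the concentration that stops growth completely.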

Assays:
Experiment in all cases: inhibition of tumour cell growth, NCI panel, 48 h
M14 melanoma = tested on: M14 melanoma
KM12 colon = tested on: KM12 colon
CCRF-CEM leukemia = tested on: CCRF-CEM leukemia
HOP-92 NSCLC = tested on: HOP-92 NSCLC
OVCAR-5 ovarian = tested on: OVCAR-5 ovarian
HT29 colon = tested on: HT29 colon
MDA-MB-435 = tested on: MDA-MB-435
HCT-116 colon = tested on: HCT-116 colon
SN12C renal = tested on: SN12C renal
MDA-MB-231 breast = tested on: MDA-MB-231 breast
CAKI-1 renal = tested on: CAKI-1 renal
SF-295 CNS = tested on: SF-295 CNS
HS 578T breast = tested on: HS 578T breast
HCT-15 colon = tested on: HCT-15 colon
A549 NSCLC = tested on: A549 NSCLC
HCC-2998 colon = tested on: HCC-2998 colon
NCI/ADR-RES ovarian = tested on: NCI/ADR-RES ovarian
UACC-257 melanoma = tested on: UACC-257 melanoma
IGROV1 ovarian = tested on: IGROV1 ovarian
A498 renal = tested on: A498 renal
BT-549 breast = tested on: BT-549 breast
HOP-62 NSCLC = tested on: HOP-62 NSCLC
ACHN renal = tested on: ACHN renal
HL-60(TB) leukemia = tested on: HL-60(TB) leukemia
OVCAR-3 ovarian = tested on: OVCAR-3 ovarian
DU-145 prostate = tested on: DU-145 prostate
TK-10 renal = tested on: TK-10 renal
UO-31 renal = tested on: UO-31 renal
MCF7 breast = tested on: MCF7 breast
MALME-3M melanoma = tested on: MALME-3M melanoma
SF-539 CNS = tested on: SF-539 CNS
SR leukemia = tested on: SR leukemia
RXF 393 renal = tested on: RXF 393 renal
LOX IMVI melanoma = tested on: LOX IMVI melanoma
K-562 leukemia = tested on: K-562 leukemia
COLO 205 colon = tested on: COLO 205 colon
SF-268 CNS = tested on: SF-268 CNS
NCI-H522 lung = tested on: NCI-H522 lung
SW-620 colon = tested on: SW-620 colon
SNB-75 CNS = tested on: SNB-75 CNS
SK-MEL-5 melanoma = tested on: SK-MEL-5 melanoma
SK-MEL-28 melanoma = tested on: SK-MEL-28 melanoma
PC-3 prostate = tested on: PC-3 prostate
RPMI-8226 leukemia = tested on: RPMI-8226 leukemia
EKVX NSCLC = tested on: EKVX NSCLC
T-47D breast = tested on: T-47D breast
SNB-19 CNS = tested on: SNB-19 CNS
NCI-H23 lung = tested on: NCI-H23 lung
MOLT-4 leukemia = tested on: MOLT-4 leukemia
U251 CNS = tested on: U251 CNS
UACC-62 melanoma = tested on: UACC-62 melanoma
OVCAR-8 ovarian = tested on: OVCAR-8 ovarian
NCI-H460 lung = tested on: NCI-H460 lung
NCI-H226 lung = tested on: NCI-H226 lung
SK-MEL-2 melanoma = tested on: SK-MEL-2 melanoma

COc1ccc2c(c1)N(Cc1ccc(Cl)cc1)CCC2N1CCCC1=O (stereo not given)
GI50 (M14 melanoma): 4.42 µM
TGI (M14 melanoma): 17.6 µM
GI50 (KM12 colon): 4.84 µM
TGI (KM12 colon): 29.3 µM
GI50 (CCRF-CEM leukemia): 4.74 µM
TGI (CCRF-CEM leukemia): > 100 µM
GI50 (HOP-92 NSCLC): 2.75 µM
TGI (HOP-92 NSCLC): 20.5 µM
GI50 (OVCAR-5 ovarian): 6.6 µM
TGI (OVCAR-5 ovarian): > 100 µM
GI50 (HT29 colon): 7.2 µM
TGI (HT29 colon): > 100 µM
GI50 (MDA-MB-435): 3.77 µM
TGI (MDA-MB-435): 15 µM
GI50 (HCT-116 colon): 5.24 µM
TGI (HCT-116 colon): > 100 µM
GI50 (SN12C renal): 4.68 µM
TGI (SN12C renal): 89.1 µM
GI50 (MDA-MB-231 breast): 4.84 µM
TGI (MDA-MB-231 breast): 98.5 µM
GI50 (CAKI-1 renal): 3.49 µM
TGI (CAKI-1 renal): 16.7 µM
GI50 (SF-295 CNS): 1.67 µM
TGI (SF-295 CNS): 5.08 µM
GI50 (HS 578T breast): 2.76 µM
TGI (HS 578T breast): 26.5 µM
GI50 (HCT-15 colon): 4 µM
TGI (HCT-15 colon): > 100 µM
GI50 (A549 NSCLC): 4.48 µM
TGI (A549 NSCLC): 51.5 µM
GI50 (HCC-2998 colon): 5.32 µM
TGI (HCC-2998 colon): > 100 µM
GI50 (NCI/ADR-RES ovarian): 3.72 µM
TGI (NCI/ADR-RES ovarian): 49.6 µM
GI50 (UACC-257 melanoma): 3.07 µM
TGI (UACC-257 melanoma): 11.2 µM
GI50 (IGROV1 ovarian): 3.51 µM
TGI (IGROV1 ovarian): > 100 µM
GI50 (A498 renal): 3.22 µM
TGI (A498 renal): 49.7 µM
GI50 (BT-549 breast): 3.23 µM
TGI (BT-549 breast): 19.6 µM
GI50 (HOP-62 NSCLC): 4.27 µM
TGI (HOP-62 NSCLC): 42.7 µM
GI50 (ACHN renal): 4.85 µM
TGI (ACHN renal): 88.2 µM
GI50 (HL-60(TB) leukemia): 5.34 µM
TGI (HL-60(TB) leukemia): 24.9 µM
GI50 (OVCAR-3 ovarian): 4.42 µM
TGI (OVCAR-3 ovarian): > 100 µM
GI50 (DU-145 prostate): 2.66 µM
TGI (DU-145 prostate): > 100 µM
GI50 (TK-10 renal): 6.98 µM
TGI (TK-10 renal): 60.9 µM
GI50 (UO-31 renal): 1.79 µM
TGI (UO-31 renal): 14.6 µM
GI50 (MCF7 breast): 3.5 µM
TGI (MCF7 breast): 25.5 µM
GI50 (MALME-3M melanoma): 3.99 µM
TGI (MALME-3M melanoma): 27.2 µM
GI50 (SF-539 CNS): 4.94 µM
TGI (SF-539 CNS): 69.3 µM
GI50 (SR leukemia): 6.37 µM
TGI (SR leukemia): > 100 µM
GI50 (RXF 393 renal): 2.77 µM
TGI (RXF 393 renal): 10.9 µM
GI50 (LOX IMVI melanoma): 3.54 µM
TGI (LOX IMVI melanoma): > 100 µM
GI50 (K-562 leukemia): 4.6 µM
TGI (K-562 leukemia): > 100 µM
GI50 (COLO 205 colon): 5.33 µM
TGI (COLO 205 colon): 20 µM
GI50 (SF-268 CNS): 5.41 µM
TGI (SF-268 CNS): > 100 µM
GI50 (NCI-H522 lung): 4.33 µM
TGI (NCI-H522 lung): 35.8 µM
GI50 (SW-620 colon): 6.48 µM
TGI (SW-620 colon): > 100 µM
GI50 (SNB-75 CNS): 3.22 µM
TGI (SNB-75 CNS): 35.8 µM
GI50 (SK-MEL-5 melanoma): 2.05 µM
TGI (SK-MEL-5 melanoma): 4.61 µM
GI50 (SK-MEL-28 melanoma): 8.28 µM
TGI (SK-MEL-28 melanoma): 45.6 µM
GI50 (PC-3 prostate): 3 µM
TGI (PC-3 prostate): 38.7 µM
GI50 (RPMI-8226 leukemia): 1.46 µM
TGI (RPMI-8226 leukemia): 12.8 µM
GI50 (EKVX NSCLC): 3.39 µM
TGI (EKVX NSCLC): 19.1 µM
GI50 (T-47D breast): 2.85 µM
TGI (T-47D breast): 26.2 µM
GI50 (SNB-19 CNS): 4.3 µM
TGI (SNB-19 CNS): 51.7 µM
GI50 (NCI-H23 lung): 4.37 µM
TGI (NCI-H23 lung): 57.2 µM
GI50 (MOLT-4 leukemia): 4.9 µM
TGI (MOLT-4 leukemia): 24.6 µM
GI50 (U251 CNS): 3.28 µM
TGI (U251 CNS): 59.6 µM
GI50 (UACC-62 melanoma): 3.25 µM
TGI (UACC-62 melanoma): 14.9 µM
GI50 (OVCAR-8 ovarian): 4.6 µM
TGI (OVCAR-8 ovarian): 57.3 µM
GI50 (NCI-H460 lung): 4.22 µM
TGI (NCI-H460 lung): > 100 µM
GI50 (NCI-H226 lung): 2.89 µM
TGI (NCI-H226 lung): 34.5 µM
GI50 (SK-MEL-2 melanoma): 6 µM
TGI (SK-MEL-2 melanoma): 28.8 µM
